Values after ≈ are worked out from the molar mass of the structure shown.
Key:
[1] = system: vancomycin-susceptible enterococci, ATCC 29212; experiment: organism not typed; details: read-out: MIC, VSE
[2] = system: vancomycin-resistant enterococci (VanB), ATCC 51299; experiment: microbe, parasite or virus in culture; details: Enterococcus, ATCC51299|VRE, read-out: MIC, VRE (VanB)
VRE (VanA), MMX 486 [3] = experiment: microbe, parasite or virus in culture; details: Enterococcus, read-out: MIC, VRE (VanA)
[4] = system: vancomycin-susceptible enterococci, ATCC 29212
[5] = system: methicillin-susceptible S. aureus, ATOC 29213
VRE (VanA), MMX 486 [6] = details: vancomycin and teicoplanin resistant
[7] = system: vancomycin-resistant enterococci (VanB), ATCC 51299; details: teicoplanin susceptible
[8] = system: methicillin-resistant S. aureus, ATCC 43300

Row | Molecule | MIC [1] [µg/mL] | MIC [2] [µg/mL] | MIC (VRE (VanA), MMX 486 [3]) [µg/mL] | MIC, VSE [4] [µg/mL] | MIC, MSSA [5] [µg/mL] | MIC, VRE (VanA) (VRE (VanA), MMX 486 [6]) [µg/mL] | MIC, VRE (VanB) [7] [µg/mL] | MIC, MRSA [8] [µg/mL]
1 | CC(=O)NC[C@H]1CN(c2ccc(N3CCOCC3)c(F)c2)C(=O)O1 [Linezolid] | 2 (≈ 5.93 µM) | 2 (≈ 5.93 µM) | 2 (≈ 5.93 µM) |  |  |  |  | 
2 | CN[C@H](CC(C)C)C(=O)N[C@H]1C(=O)N[C@@H](CC(N)=O)C(=O)N[C@H]2C(=O)N[C@H]3C(=O)N[C@H](C(=O)N[C@H](C(=O)O)c4cc(O)cc(O)c4-c4cc3ccc4O)[C@H](O)c3ccc(c(Cl)c3)Oc3cc2cc(c3O[C@@H]2O[C@H](CO)[C@@H](O)[C@H](O)[C@H]2O[C@H]2C[C@](C)(N)[C@H](O)[C@H](C)O2)Oc2ccc(cc2Cl)[C@H]1O [Vancomycin] |  |  |  | 2 (≈ 1.38 µM) | 0.5 (≈ 0.345 µM) | >64 | 16 (≈ 11 µM) | 1 (≈ 0.69 µM)
3 | Teicoplanin |  |  |  | 0.25 | 0.5 | >64 | 0.25 | 0.5
4 | teicoplanin A2-2 |  |  |  | 0.25 | 0.5 | >64 | 0.25 | 0.5

Source: article PMC3800266 (Journal of the American Chemical Society, 2013)
